# Assays:
# Bcl-2 = Bcl-2 expression, Western blot, MCF-7 and HT-1080 cells; format: cell-based; conditions: 1, 5, 10 μg/ml, 20 ng/ml TNF-α 3 hours
# Protocol: (§1) MCF-7 cells and HT-1080 cells were pretreated for 30 minutes with 1 μg/ml, 5 μg/ml, and 10 μg/ml concentrations of four kinds of kaurane diterpene compounds, respectively. After that, 20 ng/ml concentrations of TNF-α were treated for three hours to induce the expression of cIAP-1 and cIAP-2 proteins. Protein extract was prepared from cultured cells using buffer solution for protein extraction consisting of 50 mM Tris-HCL (pH 7.5), 1% Nonidet P40, 150 mM NaCl, 1 mM EDTA, 1 mM phenylmethyl sulfonyl fluoride, […]. 50 μg of protein extract of the control and compound-treated groups was applied to the SDS-polyacrylamide gel electrophoresis. After transferring the proteins into the polyvinylidene difluoride membrane, the membrane was blocked with 5% skim milk for three hours, and were reacted with antibodies against cIAP-1, cIAP-2, Bcl-2, and Bax proteins (Santa Cruz Biochemicals). The membrane was washed with PBS and was reacted with secondary antibody conjugated with horseradish peroxidase. After washing again with PBS, the protein was detected by ECL system (Amersham Pharmacia Biotec).
# prostaglandin E2 = assay: Inhibition of prostaglandin E2 production in LPS-stimulated Raw 264.7 cells (enzyme immunometric assay); format: cell-based, murine; conditions: for PGE2: 1 μg/ml LPS, 16 hours
# Protocol: To investigate whether kaurane diterpene compounds obtained in Example 1 can inhibit the production of prostaglandin, which induces inflammatory reaction, the present inventors measured the amount of prostaglandin E2 accumulated in the culture medium of LPS-stimulated murine macrophage cells, which were treated with four kaurane diterpene compounds, kamebanin, kamebacetal A, kamebakaurin, or exisanin A.
# In detail, Raw 264.7 cells in DMEM medium were seeded to a 96-well plate at a cell density of 1×10^5 cells/well and were incubated for 18 hours. Cyclooxygenase-1, the constitutive rate-determining enzyme of the prostaglandin synthesis was inactivated by incubating for 3 hrs with 500 μM of aspirin and each well was washed two times with PBS (phosphate-buffered saline). To each well were added 1 μg/ml of LPS and 3 μg/ml, 0.3 μg/ml, and 0.03 μg/ml concentrations of kaurane diterpene compounds of the present invention and was incubated for 16 hours. After collecting supernatant by centrifugation, the amount of prostaglandin in the culture medium was quantified by enzyme immunometric assay.
# COX-2 mRNA = COX-2 mRNA expression, RT-PCR, LPS-stimulated Raw 264.7 cells; format: cell-based, murine
# Protocol: (§2) Raw 264.7 murine macrophage cells were treated simultaneously with 1 μg/ml concentrations of LPS and 0.1 μg/ml, 0.3 μg/ml, 1 μg/ml, and 3 μg/ml concentrations of kamebakaurin and were incubated for 6 hours at 37° C. in a 5% CO2 incubator. After isolation of total RNA, reverse transcriptase-polymerase chain reaction (RT-PCR) was performed using said RNA as a template and primer pairs represented by SEQ. ID NO. 3 and 4 for iNOS gene and primer pairs represented by SEQ. ID NO. 5 and 6 for COX-2.
# adjuvant arthritis model = assay: Adjuvant arthritis model, paw volume; format: in vivo, Sprague-Dawley rat; conditions: for Inhibition rate (%) of arthritis: day 16-22, paw volume on 23rd day
# Protocol: Finding the inhibitory effect of kaurane diterpene compounds on the production of NO, prostaglandin, and TNF, and on the activation of NF-κB in the murine macrophage cells stimulated by LPS, the present inventors investigated the pharmacological efficacy of kaurane diterpene compounds with a adjuvant arthritis model according to the method of Futaki et al. (General Pharmacology, 1993, 24, 105-110). To prepare animal model of the arthritis, 0.05 ml of 0.1% Mycobacterium butyricum suspended in Freud adjuvant (Sigma, USA) was injected intradermally to the left hind paw of the male Sprague-Dawley rat of 180 g weight. On the fifteenth day after injection, the volume of the right paw of the rats was measured using plethysmometer (Ugo-Basile, Italy), and only the rats having arthritis on the right leg were selected. Thereafter, the selected rats were divided into four groups, six rats per each group. Four kinds of kaurane diterpene compounds of the present invention were administered orally to each groups everyday from the sixteenth day to twenty-second day with doses of 3 mg/kg/day, 10 mg/kg/day, and 20 mg/kg/day in the form of the suspended solution with 0.1% methylcellulose. The inhibition rate of arthritis was calculated by comparing the volume of the paw with that of the control on the 23rd day.
# iNOS mRNA = iNOS mRNA expression, RT-PCR, LPS-stimulated Raw 264.7 cells; format: cell-based, murine; conditions: 1 μg/ml, LPS 1 μg/ml, 6 hours
# Protocol: as §2
# cIAP-2 = assay: TNF-α-induced cIAP-2 protein expression, Western blot, MCF-7 and HT-1080 cells; format: cell-based; conditions: 1, 5, 10 μg/ml, 20 ng/ml TNF-α 3 hours
# Protocol: as §1
# cIAP-1 = assay: TNF-α-induced cIAP-1 protein expression, Western blot, MCF-7 and HT-1080 cells; format: cell-based; conditions: 1, 5, 10 μg/ml, 20 ng/ml TNF-α 3 hours
# Protocol: as §1
# iNOS protein = iNOS protein expression, Western blot, LPS-stimulated Raw 264.7 cells; format: cell-based, murine; conditions: LPS 1 μg/ml, 18 hours
# Protocol: Raw 264.7 murine macrophage cells were treated simultaneously with 1 μg/ml concentrations of LPS and 0.1 μg/ml, 0.3 μg/ml, 1 μg/ml, and 3 μg/ml concentrations of kamebakaurin and were incubated for 18 hours at 37° C. in a 5% CO2 incubator. After preparing total cell lysates from cultured cells using buffer solution for protein extraction of the Example <7-2>, the expression pattern of proteins was assessed by Western blot analysis.
# TNF-α = assay: Inhibition of TNF-α production in LPS-stimulated Raw 264.7 cells (enzyme immunometric assay); format: cell-based, murine; conditions: for TNF-α: 1 μg/ml LPS, 16 hours
# Protocol: To investigate whether kaurane diterpene compounds obtained in Example 1 can inhibit effectively the production of tumor necrosis factor-α (TNF-α), one of the inflammatory mediator, which confers cytotoxic effect and induces the production of prostaglandin and cytokines, the present inventors measured the amount of TNF-α accumulated in the culture medium of LPS-stimulated murine macrophage cells, which were treated with four kaurane diterpene compounds, kamebanin, kamebacetal A, kamebakaurin, or exisanin A.
# In detail, Raw 264.7 cells in DMEM medium were seeded to a 96-well plate at a cell density of 1×10^5 cells/well and were incubated for 3 hours at 37° C. in a 5% CO2 incubator. To each well were added 1 μg/ml of LPS and 3 μg/ml, 0.3 μg/ml, and 0.03 μg/ml concentrations of kaurane diterpene compounds of the present invention and was incubated for 16 hours. After collecting supernatant by centrifugation, the amount of TNF-α in the culture medium was quantified by enzyme immunometric assay.
# [1] = Mus musculus, RAW264.7, LPS-stimulated Raw 264.7 cells
structure (smiles),measurement,setting,value
"C=C1C(=O)[C@@]23[C@H](O)C[C@@H]4C(C)(C)CC[C@H](O)[C@@]4(CO)[C@@H]2CC[C@@H]1[C@H]3O [Kamebakaurin, kamebakaurin]",Expression of Bcl-2,Bcl-2,not inhibited
same,PGE2,prostaglandin E2; 0.03 μg/ml compound,10.7 ± 1.2 ng/mL
same,PGE2,prostaglandin E2; 0.3 μg/ml compound,9.2 ± 0.2 ng/mL
same,Inhibition rate (%) of prostaglandin E2 production,prostaglandin E2; 3 μg/ml compound,95.1%
same,PGE2,prostaglandin E2; 3 μg/ml compound,1.8 ± 0.4 ng/mL
same,inhibition at 0.03 µg/mL,"prostaglandin E2; Mus musculus, RAW264.7, 0.03 μg/ml compound, read-out: Inhibition rate (%) of prostaglandin E2 production",-7.1%
same,inhibition at 0.3 µg/mL,"prostaglandin E2; Mus musculus, RAW264.7, 0.3 μg/ml compound, read-out: Inhibition rate (%) of prostaglandin E2 production",9.7%
same,inhibition at 3 µg/mL,"prostaglandin E2; Mus musculus, RAW264.7, 3 μg/ml compound, read-out: Inhibition rate (%) of prostaglandin E2 production",~95%
same,IC50,prostaglandin E2; [1],2.63 µM
same,Expression of COX mRNA,COX-2 mRNA; 1 μg/ml,inhibited
same,Expression of COX-2 mRNA,"COX-2 mRNA; 3 μg/ml, LPS 1 μg/ml, 6 hours",completely suppressed
same,Inhibition rate (%) of arthritis,adjuvant arthritis model; 3 mg/kg/day oral,35 ± 19%
same,Inhibition rate (%) of arthritis,adjuvant arthritis model; 10 mg/kg/day oral,59 ± 11%
same,Inhibition rate (%) of arthritis,adjuvant arthritis model; 20 mg/kg/day oral,71 ± 17%
same,Suppression of arthritis (in words),"adjuvant arthritis model; 3, 10, 20 mg/kg/day oral",suppressed dose-dependently
same,Expression of iNOS mRNA,iNOS mRNA,completely suppressed
same,Expression of cIAP-2 protein induced by TNF-α,cIAP-2,inhibited
same,Expression of cIAP-1 protein induced by TNF-α,cIAP-1,inhibited
same,Expression of iNOS protein,iNOS protein; 3 μg/ml,completely suppressed
same,Expression of iNOS protein,iNOS protein; 0.1-3 μg/ml,suppressed dose-dependently
same,TNF-α,TNF-α; 0.03 μg/ml compound,1407.0 ± 255.6 pg/mL
same,TNF-α,TNF-α; 0.3 μg/ml compound,654.4 ± 29.4 pg/mL
same,TNF-α,TNF-α; 3 μg/ml compound,29.6 ± 5.3 pg/mL
same,inhibition at 0.03 µg/mL,"TNF-α; Mus musculus, RAW264.7, 0.03 μg/ml compound, read-out: Inhibition rate (%) of TNF-α production",15.9%
same,inhibition at 0.3 µg/mL,"TNF-α; Mus musculus, RAW264.7, 0.3 μg/ml compound, read-out: Inhibition rate (%) of TNF-α production",61.3%
same,inhibition at 3 µg/mL,"TNF-α; Mus musculus, RAW264.7, 3 μg/ml compound, read-out: Inhibition rate (%) of TNF-α production",99.2%
same,IC50,TNF-α; [1],0.53 µM
